Key:
[1] = test system: posterior foregut spheroids; experiment: Three-dimensional culture of posterior foregut spheroids with RA, qPCR of organ lineage markers; assay type: cell-based, human; conditions: RA (2 μM) for 72 hours (days 6-9)
Protocol: (§1) Following DE induction, cells were treated for three days with growth factors/antagonists in RPMI 1640 with 2.0% dFBS. […] CHIR99021 is a small molecule that stimulates the Wnt signaling pathway. RA (2 μM; Sigma Aldrich) is added on the final day. Three-dimensional growth and antral specification. Posterior foregut spheroids were embedded in Matrigel (BD Biosciences) as previously described^10, 12 and subsequently grown in Advanced DMEM/F12 (Invitrogen) supplemented with N2 (Invitrogen), B27 (Invitrogen), L-glutamine, 10 μM HEPES, penicillin/streptomycin, and EGF (100 ng ml^−1; R&D Systems). For antral specification, RA and noggin were added for the first three days of three-dimensional growth. For endocrine cell specification, the EGF concentration is lowered to 10 ng ml^−1 at day 30.
The spheroids were transferred to a three-dimensional in vitro culture system as previously described5, 10, 12. Briefly, spheroids were collected, resuspended in 50 μl Matrigel (BD Biosciences), and plated in a three-dimensional droplet. After Matrigel was allowed to solidify for 10-15 minutes in a tissue culture incubator, spheroids were overlaid with gut media: Advanced DMEM/F12 with N2 (Invitrogen), B27 (Invitrogen), L-glutamine, 10 μM HEPES, penicillin/streptomycin, and EGF (100 ng ml^−1; R&D Systems). For the first three days, RA and Noggin were added to the gut media. […]

[2] = test system: hPSC-derived foregut spheroids; experiment: Fundus specification protocol: Wnt signaling at days 6-9 of gastric organoid differentiation, qPCR; assay type: cell-based, human; conditions: CHIR 2 uM
Protocol: Next, the function of Wnt signaling in the regulation of fundus-antrum patterning at days 6-9 of the gastric organoid differentiation protocol was tested. Addition of Wnt3a (at 100 ng/mL and 500 ng/mL) had no effect on spheroid gene expression, but it […] expression of the Wnt target gene Axin2. Thus, the effects of the small molecule CHIR99021 (CHIR; 2 uM) were tested. CHIR99021 stimulates Wnt signaling in a receptor-independent fashion.
(§2) Analysis was performed using the ΔΔCT method.

[3] = test system: hPSC-derived definitive endoderm (DE) cultures; experiment: Endoderm patterning of hPSC-derived DE cultures with growth factors/antagonists, qPCR and immunofluorescence; assay type: cell-based, human; conditions: CHIR 2 μM, compared with recombinant WNT3A
Protocol: Following DE induction, cells were treated for three days with growth factors/antagonists in RPMI 1640 with 2.0% dFBS. […] RA (2 μM; Sigma Aldrich) is added on the final day. Three-dimensional growth and antral specification. Posterior foregut spheroids were embedded in Matrigel (BD Biosciences) as previously described^10, 12 and subsequently grown in Advanced DMEM/F12 (Invitrogen) supplemented with N2 (Invitrogen), B27 (Invitrogen), L-glutamine, 10 μM HEPES, penicillin/streptomycin, and EGF (100 ng ml^−1; R&D Systems). For antral specification, RA and noggin were added for the first three days of three-dimensional growth. For endocrine cell specification, the EGF concentration is lowered to 10 ng ml^−1 at day 30.
The media was changed every day.

[4] = test system: human antral gastric organoids (hGOs); experiment: Growth, morphogenesis and endocrine cell specification of human antral gastric organoids at different EGF concentrations; assay type: cell-based
Protocol: as §1
The spheroids were transferred to a three-dimensional in vitro culture system as previously described5, 10, 12. Briefly, spheroids were collected, resuspended in 50 μl Matrigel (BD Biosciences), and plated in a three-dimensional droplet. After Matrigel was allowed to solidify for 10-15 minutes in a tissue culture incubator, spheroids were overlaid with gut media: Advanced DMEM/F12 with N2 (Invitrogen), B27 (Invitrogen), L-glutamine, 10 μM HEPES, penicillin/streptomycin, and EGF (100 ng ml^−1; R&D Systems). For the first three days, RA and Noggin were added to the gut media. Media was replaced every 3-4 days, as necessary. At day 20, organoids were collected and re-plated in fresh Matrigel at dilution of ˜1:12.
All tissues were fixed in 4% paraformaldehyde for either one hour at room temperature for frozen processing or overnight at 4° C. for paraffin processing. For frozen sections, tissue was protected in 30% sucrose overnight at 4° C., then embedded in OCT (Tissue-Tek), and cut at 10 μm. For paraffin sections, tissue was processed through a graded ethanol series, followed by xylene, and then embedded in paraffin and cut at 7 μm. Tissue culture cells were fixed for 15 minutes at room temperature and stained directly. For staining, frozen slides were thawed to room temperature and rehydrated in PBS, while paraffin slides were deparaffinized and subjected to antigen retrieval. Slides were blocked in 5% normal donkey serum (Jackson Immuno Research) in PBS plus 0.5% Triton-X for 30 minutes at room temperature. Primary antibodies (listed in Methods Table 1) were diluted in blocking buffer and incubated overnight at 4° C. Slides were washed in PBS and incubated with secondary antibody for one hour at room temperature, and coverslips were mounted using Fluoromount-G (Southern Biotech). Confocal images were captured on a Nikon A1Rsi inverted confocal microscope.
as §2

Compound: CC1=C(/C=C/C(C)=C/C=C/C(C)=C/C(=O)O)C(C)(C)CCC1 [RA, retinoic acid]
- increase in PDX1 mRNA levels [1]: > 100 fold

Compound: Cc1c[nH]c(-c2cnc(NCCNc3ccc(C#N)cn3)nc2-c2ccc(Cl)cc2Cl)n1 [CHIR99021]
- Pdx1 expression levels [2]: robust repression
- expression of fundus-specific markers IRX3 and IRX5 [2]: induced high levels
- expression of the intestinal marker Cdx2 [2]: did not induce
- posteriorizing effects on endoderm [3]: same posteriorizing effects as recombinant WNT3A

Compound: EGF: growth factor EGF (R&D Systems) added to gut media
- endocrine cell formation ([4]; EGF 10 ng ml^−1 from day 30-34): abundance of endocrine cells
- organoid diameter ([4]; EGF 100 ng mL^−1, over 3-4 weeks, from spheroids <100 μm): 2-4 mm
- endocrine cells per organoid ([4]; EGF 100 ng ml^−1, 34-day hGOs): < 1 endocrine cell per organoid
- expression of proendocrine transcription factor NEUROG3 ([4]; high EGF (100 ng ml^−1), qPCR at day 34): inhibited
